Results taken from patent US20170362292A1, “S-Alkylated Hepcidin Peptides and Methods of Making and Using Thereof” (priority 2014, published 2017).
Like-named read-outs stand apart in the source and are kept apart here.

Legend:
human ferroportin-GFP = molecular target: T1, human ferroportin-GFP (Homo sapiens, UniProt Q9NP59); experiment: cellular assay based on Fpn degradation (HEK293:TREX-Fpn-GFP cells, flow cytometry); type: cell-based
T1 sequence (Q9NP59 1-571): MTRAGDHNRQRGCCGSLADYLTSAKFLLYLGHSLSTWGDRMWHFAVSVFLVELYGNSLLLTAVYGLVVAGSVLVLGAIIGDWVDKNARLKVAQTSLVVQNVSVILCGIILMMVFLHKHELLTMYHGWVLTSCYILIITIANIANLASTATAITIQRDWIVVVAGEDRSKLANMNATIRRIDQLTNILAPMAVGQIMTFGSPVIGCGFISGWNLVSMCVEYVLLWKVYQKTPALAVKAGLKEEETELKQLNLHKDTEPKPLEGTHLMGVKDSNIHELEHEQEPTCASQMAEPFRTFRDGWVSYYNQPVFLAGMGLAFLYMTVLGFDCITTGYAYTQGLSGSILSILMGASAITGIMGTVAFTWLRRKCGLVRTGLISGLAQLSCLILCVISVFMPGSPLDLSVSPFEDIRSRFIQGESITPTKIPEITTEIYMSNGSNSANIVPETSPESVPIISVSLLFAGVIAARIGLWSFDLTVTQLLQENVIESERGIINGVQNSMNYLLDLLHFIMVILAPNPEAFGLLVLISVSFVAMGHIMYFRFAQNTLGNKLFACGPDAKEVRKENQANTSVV
Description: The S-alkylated hepcidin peptides were tested in vitro using a previously described cellular assay based on Fpn degradation. See e.g., Nemeth, et al. (2006) Blood 107: 328. Briefly, HEK293:TREX-Fpn-GFP, a cell line stably transfected with the human ferroportin-GFP construct under the control of doxycycline-inducible promoter, was plated on poly-D-lysine-coated plates in the presence of 20 μM FAC. Fpn expression was induced with 500 ng/mL doxycycline treatment for 24 hours. Then, doxycycline was washed off, and cells were treated with peptides for 24 hours. Cells were then trypsinized and resuspended at 1×10^6 cells/mL, and the intensity of green fluorescence was analyzed by flow cytometry using FAC Scan (fluorescence activated cell scanner) Analytic Flow Cytometer (Becton Dickinson, San Jose, Calif.) with CellQuest version 3.3 software. Cells not induced with doxycycline to express Fpn-GFP were used to establish a gate to exclude background fluorescence. Cells induced with doxycycline, but not treated with any peptides, were used as the positive control. Each peptide treatment was repeated independently 3 to 6 times. […] Hydrophobicity may also play a role, as activity increases in the carboxy-esters-substituent(s) order: —CH3<—C2H5<—C4H9 (PR73 SC<PR73 SB<PR73 SA).
In vitro activity may be measured by the dose-dependent loss of fluorescence of cells engineered to display ferroportin fused to green fluorescent protein as in Nemeth et al. (2006) Blood 107:328-33.

[1] = serum iron in C57BL/6 mice after intraperitoneal peptide injection; type: in vivo; settings: 50-100 nmoles/mouse, vs PBS-injected mice
Description: Based on in vitro results, PR73SH was selected as a suitable candidate for animal studies, which were carried out as previously described. See Preza, et al. (2011) J. Clin. Invest. 121:4880; Ramos, et al. (2012) Blood 120:3829; and Nemeth, et al. (2006) Blood 107:328. Animal studies were approved by the Animal Research Committee at UCLA. Briefly, C57BL/6 mice were obtained from The Jackson Laboratory (Bar Harbor, Me.) and were maintained on NIH 31 rodent diet (iron content 336 mg/kg; Harlan Teklad, Indianapolis, […]). Mice were injected intraperitoneally either with 100 μL PBS (control) or with 50 or 100 nmoles peptide in 100 μL PBS. Mice were killed 6, 24, and 48 hours later, blood was collected by cardiac puncture, and serum was separated using Microtainer tubes (Becton Dickinson, Franklin Lakes, N.J.). Serum iron was determined by using a colorimetric assay (Diagnostic Chemicals, Oxford, Conn.), which was modified for the microplate format so that 50 μL serum was used per measurement. See Nemeth, et al. (2004) J. Clin. Invest. 113(9): 1271-1276. The results were expressed as the percentage of decrease in serum iron when compared with the average value of serum iron levels in PBS-injected mice.
In vivo activity of PR73SH and PR73 was compared by assaying serum iron levels at 3 time points: (6, 24, and 48 hours) and concentrations that were previously shown to be sufficient for PR73 to exert potent bioactivity (50-100 nmoles/mouse).

[2] = storage stability in DMSO (LC/MS/MS); type: physicochemical; settings: 10 mM solution, room temperature, 30 days
Excerpt: Thus, the present invention also provides storage stable compositions comprising one or more S-alkylated hepcidin peptides.

[3] = peptide treatment 24 hours, loss of GFP fluorescence relative to Hep25, read-out: EC50 [nM] TREX-hFpn-GFP cells

For `CCCCCCCCCCCCCCCCNC(=O)CN(CC(N)=O)C(=O)CCCCCNC(=O)C[C@H](Cc1ccccc1)NC(=O)[C@H](CCCNC(=N)N)NC(=O)[C@H](CSC(=CP(=O)(OCC)OCC)P(=O)(OCC)OCC)NC(=O)[C@H](CCCNC(=N)N)NC(=O)C[C@@H]1CCCN1C(=O)[C@@H](NC(=O)[C@H](Cc1c[nH]cn1)NC(=O)[C@@H](NC(=O)CNCC(=O)O)[C@@H](C)O)C(c1ccccc1)c1ccccc1` [PR73SH], the DC50 (human ferroportin-GFP; read-out: EC50 [nM] TREX-hFpn-GFP cells, peptide treatment 24 hours, loss of GFP fluorescence relative to Hep25) was 1.1 ± 0.1 nM, the serum iron ([1]; 6 hour time point) was “decreased serum iron” and the serum iron ([1]; 24 hour time point) was “decreased serum iron”. The stability [2] was 99.5±0.5%.

With `CCCCCCCCCCCCCCCCNC(=O)CN(CC(N)=O)C(=O)CCCCCNC(=O)C[C@H](Cc1ccccc1)NC(=O)[C@H](CCCNC(=N)N)NC(=O)[C@H](CSC(=CC(=O)OC)C(=O)OC)NC(=O)[C@H](CCCNC(=N)N)NC(=O)C[C@@H]1CCCN1C(=O)[C@@H](NC(=O)[C@H](Cc1c[nH]cn1)NC(=O)[C@@H](NC(=O)CNCC(=O)O)[C@@H](C)O)C(c1ccccc1)c1ccccc1` [PR73SC] the DC50 (human ferroportin-GFP; [3]) was 12.6 ± 1.8 nM.

In the case of `CCCCCCCCCCCCCCCCNC(=O)CN(CC(N)=O)C(=O)CCCCCNC(=O)C[C@H](Cc1ccccc1)NC(=O)[C@H](CCCNC(=N)N)NC(=O)[C@H](CSC(=CC(N)=O)C(N)=O)NC(=O)[C@H](CCCNC(=N)N)NC(=O)C[C@@H]1CCCN1C(=O)[C@@H](NC(=O)[C@H](Cc1c[nH]cn1)NC(=O)[C@@H](NC(=O)CNCC(=O)O)[C@@H](C)O)C(c1ccccc1)c1ccccc1` [PR73SG], the DC50 (human ferroportin-GFP; [3]) is reported as 8.4 ± 2.5 nM.

For `CCCCCCCCCCCCCCCCNC(=O)CN(CC(N)=O)C(=O)CCCCCNC(=O)C[C@H](Cc1ccccc1)NC(=O)[C@H](CCCNC(=N)N)NC(=O)[C@H](CSC(=CS(=O)(=O)C(C)(C)C)S(=O)(=O)C(C)(C)C)NC(=O)[C@H](CCCNC(=N)N)NC(=O)C[C@@H]1CCCN1C(=O)[C@@H](NC(=O)[C@H](Cc1c[nH]cn1)NC(=O)[C@@H](NC(=O)CNCC(=O)O)[C@@H](C)O)C(c1ccccc1)c1ccccc1` [PR73SF], the DC50 (human ferroportin-GFP; [3]) was 10 ± 3.4 nM.

In the case of `CCCCCCCCCCCCCCCCNC(=O)CN(CC(N)=O)C(=O)CCCCCNC(=O)C[C@H](Cc1ccccc1)NC(=O)[C@H](CCCNC(=N)N)NC(=O)[C@H](CS)NC(=O)[C@H](CCCNC(=N)N)NC(=O)C[C@@H]1CCCN1C(=O)[C@@H](NC(=O)[C@H](Cc1c[nH]cn1)NC(=O)[C@@H](NC(=O)CNCC(=O)O)[C@@H](C)O)C(c1ccccc1)c1ccccc1` [PR73, reference compound], the EC50 (human ferroportin-GFP; [3]) is reported as 4.2 ± 0.3 nM, the serum iron ([1]; 6 hour time point) is reported as “decreased serum iron” and the serum iron ([1]; 24 hour time point) is reported as “decreased serum iron”.

In the case of `CCCCCCCCCCCCCCCCNC(=O)CN(CC(N)=O)C(=O)CCCCCNC(=O)C[C@H](Cc1ccccc1)NC(=O)[C@H](CCCNC(=N)N)NC(=O)[C@H](CSC=CC(=O)O)NC(=O)[C@H](CCCNC(=N)N)NC(=O)C[C@@H]1CCCN1C(=O)[C@@H](NC(=O)[C@H](Cc1c[nH]cn1)NC(=O)[C@@H](NC(=O)CNCC(=O)O)[C@@H](C)O)C(c1ccccc1)c1ccccc1` [PR73SD], the DC50 (human ferroportin-GFP; [3]) is reported as 218 ± 13.4 nM.

With `CCCCCCCCCCCCCCCCNC(=O)CN(CC(N)=O)C(=O)CCCCCNC(=O)C[C@H](Cc1ccccc1)NC(=O)[C@H](CCCNC(=N)N)NC(=O)[C@H](CSC(=CC(=O)OCC)C(=O)OCC)NC(=O)[C@H](CCCNC(=N)N)NC(=O)C[C@@H]1CCCN1C(=O)[C@@H](NC(=O)[C@H](Cc1c[nH]cn1)NC(=O)[C@@H](NC(=O)CNCC(=O)O)[C@@H](C)O)C(c1ccccc1)c1ccccc1` [PR73SB] the DC50 (human ferroportin-GFP; [3]) was 10.4 ± 1.2 nM.
